Data published in patent US8961930B2, “Isatin derivatives for use as in vivo imaging agents” (Imperial Innovations Limited, priority 2008, dated 2015).

Columns and labels:
caspase 7 = target: T1, caspase 7 (Homo sapiens, UniProt P55210); test: Fluorimetric in vitro caspase inhibition assay (7-AMC), caspase 7; assay type: biochemical; conditions: recombinant human caspase 7, 10 μM Ac-DEVD-AMC
T1 construct: purchased Biomol International, UK
T1 sequence (P55210 24-198 limits assumed): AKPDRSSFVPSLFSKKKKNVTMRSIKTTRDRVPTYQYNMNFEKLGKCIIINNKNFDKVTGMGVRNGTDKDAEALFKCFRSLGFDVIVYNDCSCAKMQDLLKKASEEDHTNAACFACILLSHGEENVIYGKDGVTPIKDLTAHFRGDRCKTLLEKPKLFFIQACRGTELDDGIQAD
T1 sequence (P55210 207-303 limits assumed): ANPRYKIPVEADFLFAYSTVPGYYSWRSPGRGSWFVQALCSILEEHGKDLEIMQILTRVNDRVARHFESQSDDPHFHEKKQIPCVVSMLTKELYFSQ
Protocol: (§1) Recombinant human caspases-1, -3, -6, -7, and -8 and their peptide-specific substrates were purchased from Biomol International, UK Inhibition of the recombinant caspases by non-radioactive isatins was assessed using a fluorometric assay that measures the accumulation of a fluorogenic product, 7-amino-4-methylcoumarin (7-AMC). All assays were performed in 96-well plates at a volume of 200 μl per well. The assays were performed at 37° C. in an appropriate reaction buffer as described below for each caspase. For caspase 1, the buffer comprised of 0.1% CHAPS, 100 mM NaCl, 5 mM 2-mercaptoethanol, 100 mM HEPES (pH 7.4), 2 mM EDTA, 10% sucrose, and 10 μM of the peptide substrate Ac-YVAD-AMC. For caspase 3: 20 mM HEPES (pH 7.4), 10% sucrose, 100 mM NaCl, 0.1% CHAPS, 2 m, mM EDTA, and 10 μM Ac-DEVD-AMC. For caspase 6: 20 mM HEPES (pH 7.4), 10% sucrose, 100 mM NaCl, 0.1% CHAPS, 2 mM EDTA, and 10 μM Ac-VEID-AMC. For caspase 7: 20 mM HEPES (pH 7.4), 10% sucrose, 5 mM 2-mercaptoethanol, 100 mM NaCl, 0.1% CHAPS, 2 mM EDTA, 10 μM Ac-DEVD-AMC. For caspase 8: 20 mM HEPES (pH 7.4), 10% sucrose, 100 mM NaCl, 0.1% CHAPS, 2 mM EDTA, and 10 μM Ac-IETD-AMC. The Buffers contained non-radioactive isatins in DMSO at a final concentration of 500, 50, 5 μM; 500, 50, 5 nM; 500, 50, 5 pM; the final concentration of DMSO in all wells was 5% of the total volume. Recombinant caspases were used at 0.5 units per assay (˜500 pmol substrate converted per h). All reagents except the peptide substrate were pre-incubated for 10 min. The peptide substrate (final concentration 10 μM) was then added and the plate was incubated for a further 30 min; 30 min was selected after initial linearity study where reaction was assessed after 10, 30, 60 or 90 min. The 30 min time point was selected. Respective control wells contained all reaction components without enzyme. The amount of 7-AMC produced was measured on a fluorescence microplate reader (Victor2; Perkin-Elmer Life sciences) at excitation and emission wavelengths of 355 nm and 460 nm, respectively. The concentration of isatin that inhibits the caspase activity by 50% (EC50) was estimated by non-linear regression analysis using GraphPad Prism (Version 4.0 for Windows, GraphPad Software, San Diego Calif. USA). All the isatins were analyzed in duplicate; the assays were repeated once. Known compounds 13-16 were included as reference compounds.
(§2) The data are the average for two runs, each of which was duplicated, at nine concentrations ranging from 5 pM to 500 μM; the drug concentration required to inhibit each enzyme by 50% (EC50) was obtained from nonlinear regression analysis of the inhibition profiles.

caspase 1 = target: T2, caspase 1 (Homo sapiens, UniProt P29466); test: Fluorimetric in vitro caspase inhibition assay (7-AMC), caspase 1; assay type: biochemical; conditions: recombinant human caspase 1, 10 μM Ac-YVAD-AMC; read-out: Caspase EC50 (nM), 1/6/8: caspase 1
T2 construct: purchased Biomol International, UK
T2 sequence (P29466 120-297 limits assumed): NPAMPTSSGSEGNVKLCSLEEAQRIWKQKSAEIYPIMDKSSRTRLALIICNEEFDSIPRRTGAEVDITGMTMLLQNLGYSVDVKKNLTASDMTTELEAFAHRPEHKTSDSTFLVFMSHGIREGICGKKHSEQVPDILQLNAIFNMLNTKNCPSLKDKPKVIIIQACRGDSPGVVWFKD
T2 sequence (P29466 317-404 limits assumed): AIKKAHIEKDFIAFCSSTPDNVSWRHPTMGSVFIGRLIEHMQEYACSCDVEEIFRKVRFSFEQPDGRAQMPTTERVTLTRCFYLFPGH
Protocol: as §1, §2

caspase 6 = target: T3, caspase 6 (Homo sapiens, UniProt P55212); test: Fluorimetric in vitro caspase inhibition assay (7-AMC), caspase 6; assay type: biochemical; conditions: recombinant human caspase 6, 10 μM Ac-VEID-AMC; read-out: Caspase EC50 (nM), 1/6/8: caspase 6
T3 construct: purchased Biomol International, UK
T3 sequence (P55212 24-179 limits assumed): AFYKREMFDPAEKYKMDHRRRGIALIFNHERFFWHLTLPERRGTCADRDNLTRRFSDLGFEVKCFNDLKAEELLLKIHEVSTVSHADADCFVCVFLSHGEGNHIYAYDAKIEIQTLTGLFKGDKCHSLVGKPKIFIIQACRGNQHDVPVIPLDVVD
T3 sequence (P55212 194-293 limits assumed): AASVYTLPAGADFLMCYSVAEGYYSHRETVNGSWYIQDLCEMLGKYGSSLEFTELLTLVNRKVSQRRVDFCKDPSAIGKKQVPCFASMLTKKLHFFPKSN
Protocol: as §1, §2

caspase 8 = target: T4, caspase 8 (Homo sapiens, UniProt Q14790); test: Fluorimetric in vitro caspase inhibition assay (7-AMC), caspase 8; assay type: biochemical; conditions: recombinant human caspase 8, 10 μM Ac-IETD-AMC; read-out: Caspase EC50 (nM), 1/6/8: caspase 8
T4 construct: purchased Biomol International, UK
T4 sequence (Q14790 217-374 limits assumed): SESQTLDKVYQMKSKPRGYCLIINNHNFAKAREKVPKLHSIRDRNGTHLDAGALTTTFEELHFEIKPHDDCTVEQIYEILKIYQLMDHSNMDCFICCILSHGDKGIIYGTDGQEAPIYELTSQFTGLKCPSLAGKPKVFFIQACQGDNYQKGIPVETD
T4 sequence (Q14790 385-479 limits assumed): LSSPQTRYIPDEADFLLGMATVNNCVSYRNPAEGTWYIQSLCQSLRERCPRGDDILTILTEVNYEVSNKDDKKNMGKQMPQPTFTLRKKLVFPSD
Protocol: as §1, §2

38C13 lymphoma cells = test: Binding in 38C13 lymphoma cells undergoing treatment-induced apoptosis; assay type: cell-based, murine; conditions: 38C13 cells, 4-HC 1 μg/mL 24 h
Protocol: (left panel). Chemical structure and [^18F]11 binding in 38C13 lymphoma cells treated with 4-hydroperoxycyclophosphamide 4-HC (4-HC; 1 μg/mL; 24 h) to induce apoptosis. For all treated and control samples, radioactivity data were expressed as decay-corrected counts per milligram of total cellular protein. (right panel) The effect of 4-HC on the binding of the low affinity probe, [^18F]42, in 38C13 lymphoma cells. Data are mean±s.e.m.
A further aspect of the project has involved analysis of the weak isatin caspase-3 inhibitor N-[1-(2-Fluoroethyl)-1H-[1,2,3]-triazol-4-yl]isatin (compound 42). […] However, [^18F]42 lacks the pyrrolidine sulphonamide functionality that confers high affinity and selectivity for caspase-3. [^18F]42 was investigated in cell uptake assays for direct comparison with [^18F]11. The purpose of this was to examine the uptake profiles of the compounds in an effort to determine if uptake was the result of increased cell permeability, a characteristic trait of apoptotic cells, or the result of caspase-3 binding. Unlike [^18F]11, there was no increase in [^18F]42 binding following drug treatment (see FIG. 26), supporting the notion that [^18F]11 binding is due to caspase 3 activation.

[1] = In vivo metabolism studies, radio-HPLC of plasma, liver and urine; design: species or system C3H/hej mice
Protocol: [^18F]11 was injected intravenously into tumor-bearing mice and its tissue distribution was measured in selected tissues at 2, 15 and 60 min after injection. […] Furthermore, the in vivo metabolic stability of the radiotracer was determined from plasma and liver samples and, for [^18F]11, in urine samples.
In vivo metabolism studies were also performed in C3H/hej mice. […] Plasma, liver and urine samples were snap-frozen in liquid nitrogen and kept in pre-weighed scintillation counting tubes on dry ice prior to analysis.
Immediately prior to extraction the samples were thawed and placed on ice. For extraction, ice cold acetonitrile (1.5 mL) was added to plasma (0.2 mL); S9 incubation samples (3 mL) containing acetonitrile were also analysed. Each mixture was centrifuged (15493×g, 4° C., 3 min) and the resulting supernatant was evaporated to dryness under vacuum at 40° C. using a rotary evaporator. Liver samples were homogenized with ice cold acetonitrile (1.5 mL) using an IKA Ultra-Turrax T-25 homogeniser prior to centrifugation. The residues were then re-suspended in HPLC mobile phase (1.2 mL) and filtered through a Minisart hydrophilic syringe filter (0.2 μm) (Sartorius, Goettingen, Germany). Urine samples were diluted with HPLC mobile phase, filtered as above. The samples (1 mL) were then analyzed by radio-HPLC on an Agilent 1100 series HPLC system (Agilent Technologies, Stockport, UK) equipped with a γ-RAM Model 3 gamma-detector and the Laura software (IN/US Systems inc., Florida, USA).
The stationary phase comprised of a Waters μBondapak C18 reverse-phase column (300×7.8 mm). […] Furthermore, to assess the fraction of [^18F]9-derived radioactivity associated with the plasma and liver pellets after extraction versus that remaining in the HPLC injectate, the total volume of HPLC injectate was recorded and an aliquot (0.1 mL) removed for counting. The radioactivity in the 0.1 mL aliquot and the pellet were then analyzed by gamma counting (Packard Instruments).

[2] = In vivo biodistribution studies (Example 5); design: species or system C3H/hej mice; conditions: mice, i.v., 2-60 min
Protocol: The stability of novel compound [^18F]11 and known compound [^125I]14 in plasma and liver was measured over time following administration in mice. [^18F]11 was injected intravenously into tumor-bearing mice and its tissue distribution was measured in selected tissues at 2, 15 and 60 min after injection. [^125I]14 was injected intravenously into non-tumour bearing mice and its tissue distribution was measured at selected time points from 2 to 60 minutes after injection. Furthermore, the in vivo metabolic stability of the radiotracer was determined from plasma and liver samples and, for [^18F]11, in urine samples.
The radiation-induced murine fibrosarcoma (RIF-1) tumour cells^20 were maintained in RPMI 1640 medium (Invitrogen Ltd, Paisley, UK) supplemented with 10% fetal calf serum (BioWhittaker Europe Ltd, Verviers, Belgium), 2 mM L-glutamine, 100 U/mL penicillin, 100 μg/mL streptomycin and 0.25 μg/mL fungizone (Gibco, UK) at 37° C. in a humidified incubator with 5% CO2. All animal work was done by licensed investigators in accordance with the United Kingdom's “Guidance on the Operation of Animals (Scientific Procedures) Act 1986” (HMSO, London, United Kingdom, 1990) and in full compliance with government regulations and guidelines on the welfare of animals in experimental neoplasia^21. Tumors were established in mice by subcutaneous injection of 5×10^5 cells on the back of male C3H/hej mice (Harlan, Bicester, Oxfordshire, UK). Tumour growth was monitored every two days using electronic callipers, and tumor volume estimated using the equation (π/6)×L×W×D (L=length, W=width and D=depth). Animals were selected for biodistribution studies of [^18F]11 when the tumors reached ˜100-150 mm^3; biodistribution of [^125I]14 was done in non-tumor-bearing mice.
Mice were injected intravenously via the lateral vein with 0.08-0.13 mL of radioactivity (˜0.37 MBq of [^125I]14 or 3.7 MBq of [^18F]11) dissolved in phosphate buffered saline. At selected times after injection (2-60 min) mice were sacrificed by exsanguination via cardiac puncture under general anesthesia (isofluorane inhalation). Aliquots of heparinised blood were rapidly centrifuged (2000 g for 5 minutes) to obtain plasma. The radioactivity contained in tissues was determined by gamma-counting on a Cobra II Auto-Gamma counter (Packard Instruments, Meriden, Conn., USA) and expressed as a percentage of injected dose per gram of tissue (% ID/g). A minimum of three mice was used for each time point. All animals were treatment-naïve.

O=C1C(=O)N(Cc2ccc(F)cc2)c2ccc(S(=O)(=O)N3CCC[C@H]3COc3cc(F)cc(F)c3)cc21 [Compound 3, (S)-1-(4-Fluorobenzyl)-5-(2-(3,5-difluorophenoxymethyl)-pyrrolidine-1-sulfonyl)isatin]
EC50 (caspase 7): 16.8 nM | EC50 (caspase 1): > 5000 nM | EC50 (caspase 6): > 5000 nM | EC50 (caspase 8): > 5000 nM

O=C1C(=O)N(c2cn(CCF)nn2)c2ccccc21 [[^18F]42, N-[1-(2-Fluoroethyl)-1H-[1,2,3]-triazol-4-yl]isatin]
binding following drug treatment (38C13 lymphoma cells): no increase

O=C1C(=O)N(Cc2ccc(I)cc2)c2ccc(S(=O)(=O)N3CCC[C@H]3COc3ccccc3)cc21 [[^125I]14, (S)-1-(4-iodobenzyl)-5-(2-phenoxymethyl-pyrrolidine-1-sulfonyl)isatin, reference compound]
parent as share of the radioactivity detected in the liver ([1]; 10 min after injection, n=3): < 15% | time until parent fully metabolized in the liver ([1]; mice, after injection): ≤ 30 min | time to complete elimination of parent from plasma ([1]; mice, i.v.): ≤ 10 min | tissue distribution and elimination [2]: distributed rapidly to the major organs and was also rapidly eliminated
